Converted amounts (≈) assume the structure as drawn.
Assays:
Type in all cases: cell-based
[1] = test system: Enterococcus faecium No. 569; experiment: Specific activity against resistant bacterial strains; conditions: Ent. faecium 569; 24 h, 36° C.
[2] = test system: Staphylococcus aureus No. 100 KC; experiment: as above
Procedure: (§1) The tested agents were water-soluble hemin derivatives (compounds VII and XVIII) or DMSO-soluble derivatives (compounds VIII, XV, and XIV). Vancomycin was the reference compound. Each compound was tested in three replicas.
(§2) Sterile single-use flat-bottomed 96-well plates, Petri dishes, pipettes, tips, and test tubes (Pan-Eco, Moscow) were used in the study.
(§3) The nutritional media used were as follows. A working Mueller Hinton broth was prepared from dry media (Mueller Hinton broth, Acumedia, Baltimore) and sterilized by autoclaving at 121° C. for 15 min.
(§4) Staphylococcus aureus was cultured on the Tripticase Soy Agar (BBL) commercially available dry medium. Enterococcus faecalis was cultured on the Columbia Agar Base (BBL) commercially available dry medium. These media were sterilized by autoclaving at 121° C. for 15 min.
(§5) Bacterial inoculum was fixed and equal to 5×10^5 CFU/mL.
(§6) For water-soluble compounds, wells from 2nd through 8th were added with the solvent (water) in an amount of 15 μL per well, then the 1st well was added with 30 μL of the stock solution of the tested compound in water with a concentration of 1×10^3M, and the concentration was adjusted to 0.007×10^3 M by serial twofold dilutions. A 10-μL portion was taken from every well, and 190 μL of the bacterial culture (10^5 CFU) was added per well.
(§7) For DMSO-soluble compounds, wells from 2nd through 8th were added with the solvent (DMSO) in an amount of 10 μL per well, then the 1st well was added with 20 μL of the stock solution of the tested compound in […] with a concentration of 5×10^3M, and the concentration was adjusted to 0.039×10^3 M by serial twofold dilutions. A 2-μL portion was taken from each well, and 198 μL of the bacterial culture (10^5 CFU) was added per well.
(§8) The control comprised wells free of tested compounds (culture growth control). In addition, purity control of nutritional media and solvents was used. Plates were incubated in a thermostat at 36° C. for 24 hours.
(§9) Culture growth was evaluated visually by comparison of how microorganisms grew in the presence of tested compounds and in the absence of them. MSC (the minimal suppressing concentration) was set equal to the last dilution of a tested agent which suppressed bacterial culture growth.

[3] = test system: Staphylococcus aureus No. 25923 ATCC; experiment: as above
Procedure: as §1, §2, §3, §4, §5, §6, §7, §8, §9

[4] = test system: Enterococcus faecalis No. 559; experiment: as above
Procedure: as §1, §2, §3, §4, §5, §6, §7, §8, §9

[5] = test system: Staphylococcus epidermidis No. 533; experiment: as above; conditions: St. epiderm 533; 24 h, 36° C.
Procedure: as §1, §2, §3, §4, §5, §6, §7, §8, §9

[6] = test system: Enterococcus faecalis BKM B-871; experiment: Antibacterial activity (MIC/MBC), serial dilutions in liquid MH medium
Procedure: (§10) The antibacterial activity of compounds was determined against Bacillus subtilis BKM B-501, Staphylococcus aureus 209P, Enterococcus faecalis BKM B-871, and Micrococcus luteus BKM Ac-2230 strains (acquired from the All-Russia Collection of Microorganisms at the Institute for Biochemistry and Physiology of Microorganisms, Russian Academy of Sciences). The main parameters characterizing the antibacterial activity are the minimal inhibitory concentration (MIC) and minimal bactericidal concentration (MBC). […] MBC is the least concentration that causes the death of all cells.
(§11) MIC was quantified by inhibiting culture growth in a liquid medium with serial dilutions of compounds using a modified procedure [Amsterdam, D., “Susceptibility Testing of Antimicrobials in Liquid Media,” in Antibiotics in Laboratory Medicine, Ed. by Lorian, V., 4th ed., Baltimore: Williams and Wilkins, 1996, pp. 52-111].
(§12) Bacteria were cultured and tests were carried out on an MH liquid medium (Mueller-Hinton medium: a dry extract of beef broth, 4 g/L; starch, 1.5 g/L; casein hydrolyzate, 17.5 g/L; Sigma-Fluka Catalog No. 70192) at 37° C., 100% humidity, and under stirring. Cultures (4th through 7th receeding post-thawing) in the exponential growth phase were used for tests.
(§13) Therefore, a correction for absorption was applied in estimating the optical density of bacterial suspensions for each compound with account for its concentration in the well.
(§14) The protocol for experimental antibacterial activity determination for tested compounds was as follows. A cryovial with the test strain culture (Bacillus subtilis BKIVI B-501, Staphylococcus aureus 209P, Enterococcus faecalis BKM B-871, or Micrococcus luteus BKIVI Ac-2230) in a medium with 7% DMSO stored in liquid nitrogen, was rapidly defrosted, and 1.5 mL of the fresh MH medium was inoculated with 100 μL of the cell suspension. Cells were grown for one day at 37° C. and stirred on an orbital shaker at 150 rpm. The morphologic features of the strain and the absence of contamination with foreign bacteria were verified by: (a) inoculation on an agarized (15 g/L agar) MH medium and observation of the shape and color of the grown colonies and (b) examination of characteristic morphologic features under a microscope (Mikmed-2, LOMO, Russia) equipped with a 40× objective lens. Further bacteria were cultured in 1 mL of the liquid MH medium at 37° C. under stirring. The cells were reseeded every day. Cell cultures were used in tests starting with 3rd reseeding and ending with 6th one.
(§15) For testing, 5 μL of a bacterial suspension in the stationary growth phase was transferred to 1 mL of a sterile MH medium and incubated until the exponential growth phase was attained (3 to 5 h, 37° C., stirring at 150 rpm). To estimate the microorganisms concentration, the optical density (A) of the resulting bacterial culture was measured at a wavelength of 595 nm. The value of A=0.2 measured from a […] portion of the cell suspension in a 96-well plate, with a correction for the medium absorption applied, was set to correspond to 4×10^8 cells/mL for both strains used. Taking into account the cell concentration measurements, the suspension was diluted with the MH medium to a concentration of from 5×10^4 to 1×10^5 cells/mL and transferred to a sterile 96-well plate in an amount of 100 μL, per well. Then, the cells were added with tested compounds and twofold serial dilutions of these compounds in plate's wells were made.
(§16) The controls used were: 100 μL of an additive-free bacterial culture (four wells); a bacterial culture added with 1% DMSO or water in the same volume as in the wells with the maximal concentration of the tested compounds (four wells); and 100 μL of the sterile MH medium without bacteria and without tested compounds for control of occasional contamination in the plate (four wells).

[7] = test system: Staphylococcus aureus 209P; experiment: as above
Procedure: as §10, §11, §12, §13, §14, §15, §16

[8] = test system: Micrococcus luteus BKM Ac-2230; experiment: as above
Procedure: as §10, §11, §12, §13, §14, §15, §16

[9] = test system: Bacillus subtilis BKM B-501; experiment: as above
Procedure: as §10, §11, §12, §13, §14, §15, §16

Candida albicans No. 927 = experiment: Antifungal activity, culture growth with pH indicator; parameters: key to Test culture growth at various dilutions of the agent: (−) No growth; the indicator is blue; (±) Weak growth; the indicator is yellow, but the precipitate of grown cells looks as a diffuse spot; (+) Strong growth; the indicator is yellow, and the cell precipitate looks as a compact spot
Procedure: The subjects of action were Cryptococcus neoformans No. 3465 museum strain cells and Candida albicans No. 927 museum strain cells grown for one day on a glucose-peptone-yeast medium at 32° C. The reference compounds were the following antimycotics: pimafucin, amphotericin, and fluconazole.
Experiments were carried out on round-bottomed 96-well plates (Lenmedpolimer) in two replicas. To the first column (0), added was 10 μL of the stock solution of a water-soluble agent with concentrations of 10^−2 to 10^−3 mol/L; to the second column, added was also the same 10 μL plus 10 μL of the solvent corresponding to the given compound, suspended, 10 μL was transferred to the next well, and so on to the 8th well of the row. Stock solutions of water-insoluble compounds of general formula (I) (compounds V, VIII, XII, XIII, XIV, and hemin) were prepared in DMSO and were diluted with DMSO and the medium. DMSO concentrations in the reaction mixture in a well were ≦5%.
Then, to every well added was 190 μL of a Cr. neoformans cell culture suspension in a synthetic nutritional medium (so that the final cell concentration was approximately 10^3 CFU/mL), this medium containing Bromocresol Blue as a pH-indicator (pH: 5.5; indicator color: blue). As pH reduced to 4.5, the indicator in the culture changed its color to yellow, thereby indicating fungal cell growth. The synthetic medium comprised the following components: salts, amino acids, microelements, vitamins, an antibiotic, and glucose (30 components altogether) [Yarrow, D., “Methods for the Isolation, Maintenance and Identification of Yeasts,” in: The Yeasts. A Taxonomic Study, Ed. by Kurtsman, C. P, and Fell, M., Elsevier, 1998, pp. 77-100]. After being inoculated with a Cr. neoformans cell suspension, the plate was incubated at 32° C. for 1 h with stirring, then transferred to a stationary thermostat and incubated for two and five days at 27° C. After being inoculated with a C. albicans cell suspension, the plates were incubated for 1 h at 32° C. with stirring, then transferred to a stationary thermostat and incubated for one and four days at 27° C.

Cryptococcus humicolus = experiment: Antifungal activity against cryptococcosis causative agent (MSC)

C=CC1=C(C)c2cc3[n-]c(cc4nc(cc5[n-]c(cc1n2)c(C)c5CCC(=O)N[C@@H](CCCNC(=N)N)C(=O)N[C@@H](CCCNC(=N)N)C(=O)OC)C(CCC(=O)N[C@@H](CCCNC(=N)N)C(=O)N[C@@H](CCCNC(=N)N)C(=O)OC)=C4C)c(C)c3C=C.[Cl-].[Fe+3] [Compound XXI, 6,7-bis[(N^α-L-Arginyl Methyl Ester)-L-Arginyl]-Protohemin IX]
MICs for hemin derivatives against Gr+ strains [1]: >50 µM | MICs for hemin derivatives against Gr+ strains ([2]; St. aureus 100 KC, 24 h, 36° C.): 50 µM | MICs for hemin derivatives against Gr+ strains ([3]; St. aureus 25923, 24 h, 36° C.): 50 µM | MICs for hemin derivatives against Gr+ strains ([4]; Ent. faecalis 559, 24 h, 36° C.): 50 µM | MICs for hemin derivatives against Gr+ strains [5]: 50 µM

CN[C@H](CC(C)C)C(=O)N[C@H]1C(=O)N[C@@H](CC(N)=O)C(=O)N[C@H]2C(=O)N[C@H]3C(=O)N[C@H](C(=O)N[C@H](C(=O)O)c4cc(O)cc(O)c4-c4cc3ccc4O)[C@H](O)c3ccc(c(Cl)c3)Oc3cc2cc(c3O[C@@H]2O[C@H](CO)[C@@H](O)[C@H](O)[C@H]2O[C@H]2C[C@](C)(N)[C@H](O)[C@H](C)O2)Oc2ccc(cc2Cl)[C@H]1O [Vancomycin, reference compound]
MIC ([2]; Staphylococcus aureus, NO.100KC, read-out: MICs for Vancomycin): 1 µg/mL (≈ 0.69 µM) | MIC ([3]; Staphylococcus aureus, NO.25923ATCC, read-out: MICs for Vancomycin): 1 µg/mL (≈ 0.69 µM) | MIC ([4]; Enterococcus faecalis, NO.559, read-out: MICs for Vancomycin): 1 µg/mL (≈ 0.69 µM)

Protohemin IX 6(7)-Mono(-Val-Gly-Ala-D-Leu-Ala-D-Val-Val-D-Val-Trp-D-Leu-X-D-Leu-Trp-D-Leu-Trp-NH—CH2CH2OH)amide [Compound XII]
MBC [6]: >50^3 μM | MIC ([6]; 20 h, MH medium): 50 µM | MBC [7]: >50^2 μM | MIC ([7]; 20 h, MH medium): 50 µM | MBC [8]: >6.3^3 μM | MIC ([8]; 20 h, MH medium): 1.6 µM | MBC [9]: 38 ± 13 µM | MIC ([9]; 20 h, MH medium): 38 ± 13 µM | Test culture growth at various dilutions of the agent (Candida albicans No. 927; dilution 0: 1 × 10^−4 M): ± | Test culture growth at various dilutions of the agent (Candida albicans No. 927; dilution : 2 of 1 × 10^−4 M): ± | Test culture growth at various dilutions of the agent (Candida albicans No. 927; dilution : 4 of 1 × 10^−4 M): ± | Test culture growth at various dilutions of the agent (Candida albicans No. 927; dilution : 8 of 1 × 10^−4 M): + | Test culture growth at various dilutions of the agent (Candida albicans No. 927; dilution : 16 of 1 × 10^−4 M): + | Test culture growth at various dilutions of the agent (Candida albicans No. 927; dilution : 32 of 1 × 10^−4 M): + | Test culture growth at various dilutions of the agent (Candida albicans No. 927; dilution : 64 of 1 × 10^−4 M): + | MSC (Cryptococcus humicolus): 12.5 µM

— patent US8906897B2, “Antimicrobial agents based on hemin derivatives” (Obschestvo S Ogranichennoi Otvetstvennostiyu …, priority 2009, dated 2014)
